Data: patent US11446354B2, “Method of treatment” (Hexima Limited, priority 2014, dated 2022)
Where two headings read alike, the source gives them in different places.

Key:
[1] = tested on: Trichophyton rubrum, T. interdigitale, Microsporum fulvum and C. albicans; assay: Inhibition assays summarised across the range of fungal pathogens; assay type: cell-based; details: summary of Table 3
Procedure: (§1) The inhibitory effects of the plant defensins on the growth of Trichophyton rubrum, T. interdigitale, Microsporum fulvum and C. albicans (obtained from the National Mycology Reference Centre, South Australia Pathology at the Women's and Children's Hospital, Adelaide, Australia) are measured essentially as described by Broekaert et al. (1990) FEMS Microbiol Lett 69:55-59. Spores of T. rubrum, T. interdigitale and M. fulvum are isolated from sporulating fungus growing on 1⁄2 strength Sabouraud dextrose agar (SDA). Spores were removed from the plates by the addition of 1⁄2 strength potato dextrose broth (PDB). C. albicans cells are grown in Yeast Peptone Broth (YPD) for 16 h. Spore and cell concentrations are measured using a hemocytometer. Antifungal assays are conducted in 96 well microtitre plates essentially as herein described. Wells are loaded with 20 μL of filter sterilized (0.22 μm syringe filter, Millipore) defensin (10× stock for each final concentration) or water and 80 μL of 5×10^4 spores/mL (T. rubrum, T, interdigitale, M. fulvum) or 5,000 cells/mL (C. albicans) in 1⁄2 strength PDB. The plates are incubated at 30° C. Fungal growth is assayed by measuring optical density at 595 nm ([…]) using a microtitre plate reader (SpectraMax Pro M2; Molecular Devices. Growth is allowed to proceed until the optical density (OD) of the fungus in the absence of any test defensin reached an OD of 0.2. Each test is performed in duplicate.

[2] = assay type: in vitro ADME, Human; details: for Cumulative amount through nail as percent (of applied dose): human
Procedure: Penetration of NaD1 through human nails was measured according to the method of Hui et al. (2002) J Pharm Sci 91(1):189-195. Human toenails were obtained from ScienceCare (USA) and washed with phosphate buffered saline (details, PBS) before being placed on a kimwipe that had been soaked in PBS for 3 h to rehydrate the nail. The nail was then placed in a plastic nail adapter with a dosing area of 0.5×0.5 cm (Permagear, USA) and a cotton bud wetted with 75 microlitres of PBS was placed in the receptor chamber in contact with the underside of the nail.
The cotton bud in contact with the underside of the nail was removed after 24 h and every 24 h following. Protein that had passed through the nail was recovered from the cotton bud by washing twice with 500 μL of 0.1% v/v trifluoroacetic acid. Recovered protein was quantified using RP-HPLC.

[3] = tested on: Human monocytic lymphoma (U937) cells; assay type: cell-based
Procedure: Human monocytic lymphoma (U937) cells are cultured in RPMI-1640 medium. All culture media are supplemented with 5-10% v/v fetal calf serum, 100 U/ml of penicillin, and 100 μg/ml of streptomycin. Cell lines are cultured at 37° C. in a humidified atmosphere containing 5% v/v CO2. Adherent cell lines are detached from the flask by adding a mixture containing 0.25% v/v trypsin and […]. A flow cytometry-based propidium iodide (PI) uptake assay is performed to analyze the ability of plant defensins to permeabilize U937 cells (essentially as described in Poon et al, 2014). Briefly, cells are suspended to 1×10^6 cells/ml in 0.1% v/v BSA/RPMI-1640 and incubated with plant defensins (10 μM) at 37° C. for 30 min. Samples are added to PBS containing a final concentration of 1 μg/ml PI and placed on ice. Samples are then analyzed immediately using the BD FACSCanto II Flow Cytometer and BD FACSDiva software v6.1.1. The resultant flow cytometry data is analyzed using FlowJo software v8.8.6. Cells are gated appropriately based on forward scatter and side scatter and cell permeabilization is defined by PI-positive staining.

Escherichia coli = assay: Inhibition of the growth of Escherichia coli; assay type: cell-based; details: 0.1625-10 μM, 18 hours, 37° C.
Procedure: A single E. coli colony was used to inoculate 5 ml of Luria-Bertani media and grown overnight at 37° C. The following day, the optical density of the culture was measured and the E. coli diluted to an optical density at 600 nm (OD600) of 0.01 in Mueller-Hinton Broth. Diluted E. coli were added to 96-well plates with defensins at concentrations of 10 μM, 5 μM, 2.5 μM, 1.25 μM, 0.625 μM, 0.3125 μM or 0.1625 μM. Plates were read at OD595 to obtain time zero data points. Plates were incubated at 37° C. for 18 hours before reading again at OD595 to assess the amount of E. coli growth.

Microsporum fulvum = assay: Antifungal growth inhibition assay, Microsporum fulvum; assay type: cell-based; details: summary of Table 3
Procedure: as §1, with “Wells are loaded with 20 μL of filter sterilized (0.22 μm syringe filter, Millipore) defensin (10× stock for each final concentration) or water and 80 μL of 5×10^4 spores/mL (T. rubrum, T, interdigitale, M. fulvum) or 5,000 cells/mL (C. albicans) in 1⁄2 strength PDB. The plates are incubated at 30° C.” left out

C. albicans = assay: Antifungal growth inhibition assay, C. albicans; assay type: cell-based, Candida albicans; details: summary of Table 3
Procedure: as §1, with “Wells are loaded with 20 μL of filter sterilized (0.22 μm syringe filter, Millipore) defensin (10× stock for each final concentration) or water and 80 μL of 5×10^4 spores/mL (T. rubrum, T, interdigitale, M. fulvum) or 5,000 cells/mL (C. albicans) in 1⁄2 strength PDB. The plates are incubated at 30° C.” left out

HXL012: Class I plant defensin from Amaranthus retroflexus, SEQ ID NO: 10 (RMCKAPSKLFRGMCGIRDSNCDSVCRAEGMAAGDCHGLRRRCICSRPC; HXL012 Amaranthus retroflexus)
Antifungal activity across the range of fungal pathogens, result in words [1]: intermediate activity across the range of pathogens | Nail penetration, result in words [2]: did not penetrate the nail | U937 cells permeabilized (PI-positive) [3]: less than 2%

HXL035: Class I plant defensin from Picramnia pentandra, SEQ ID NO: 2 (KVCTKPSKFFKGLCGFDRDCTVACKKEGLASGFCQNKGFFNVVCVCRKPC; HXL035 Picramnia pentandra)
Antifungal activity across the range of fungal pathogens, result in words [1]: most effective plant defensins across the range of fungal pathogens

HXL013: Class I plant defensin from Glycine max, SEQ ID NO: 11 (KDCLTRRHGFQGRCLFDRQCAHVCRSDGFIGGQCRGPLRKCFCSRPC; HXL013 Glycine max)
Antifungal activity across the range of fungal pathogens, result in words [1]: intermediate activity across the range of pathogens | U937 cells permeabilized (PI-positive) [3]: 5%

OB1OCc2cc(F)ccc21 [Tavaborole]
Cumulative amount through nail as percent (of applied dose) ([2]; 3 day, 10 %): 2.0% | Cumulative amount through nail as percent (of applied dose) ([2]; 6 day, 10 %): 3.7% | Cumulative amount through nail as percent (of applied dose) ([2]; 9 day, 10 %): 6.8% | Cumulative amount through nail as percent (of applied dose) ([2]; 12 day, 10 % solution): 10.7% | Cumulative amount through nail as percent (of applied dose) ([2]; 15 day, 10 % solution): 14.9%

HXL001: Class I plant defensin from Zea mays, SEQ ID NO: 4 (RHCLSQSHRFKGLCMSSNNCANVCQTENFPGGECKAEGATRKCFCKKIC; HXL001 Zea mays)
Antifungal activity across the range of fungal pathogens, result in words [1]: did not display any activity at the concentrations tested | U937 cells permeabilized (PI-positive) [3]: less than 2%

C=C1CCN([C@H](C)[C@](O)(Cn2cncn2)c2ccc(F)cc2F)CC1 [Efinaconazole]
Cumulative amount through nail as percent (of applied dose) ([2]; 1 day, 10 % solution): 0.2% | Cumulative amount through nail as percent (of applied dose) ([2]; 2 day, 10 % solution): 0.4% | Cumulative amount through nail as percent (of applied dose) ([2]; 3 day, 10 %): 0.7% | Cumulative amount through nail as percent (of applied dose) ([2]; 4 day, 10 % solution): 0.8% | Cumulative amount through nail as percent (of applied dose) ([2]; 6 day, 10 %): 1.3% | Cumulative amount through nail as percent (of applied dose) ([2]; 9 day, 10 %): 2.0% | Cumulative amount through nail as percent (of applied dose) ([2]; 12 day, 10 % solution): 2.7% | Cumulative amount through nail as percent (of applied dose) ([2]; 15 day, 10 % solution): 3.3%

HXP4: Artificial defensin variant, Loop1B of a Class I defensin replaces that of the Solanaceous Class II defensin, SEQ ID NO: 21 (RECKTESHRFKGPCITKPPCRKACISEKFTDGHCSKILRRCLCTKPC; HXP4)
U937 cells permeabilized (PI-positive) [3]: 13%

HXL015: Class I plant defensin from Oryza sativa, SEQ ID NO: 12 (RHCLSQSHRFKGMCVSSNNCANVCRTESFPDGECKSHGLERKCFCKKVC; HXL015 Oryza sativa)
Antifungal activity across the range of fungal pathogens, result in words [1]: intermediate activity across the range of pathogens

HXL009: Class I plant defensin from Zea mays, SEQ ID NO: 9 (TVCMRHNNFYHGPCMSNKDCANSCVQHNLGVGGYCRGKIPFNKECMCTFEC; HXL009 Zea mays)
Antifungal activity across the range of fungal pathogens, result in words [1]: did not display any activity at the concentrations tested | U937 cells permeabilized (PI-positive) [3]: less than 2%

NaD1: Solanaceous Class II plant defensin from Nicotiana alata, SEQ ID NO: 18 (RECKTESNTFPGICITKPPCRKACISEKFTDGHCSKILRRCLCTKPC; NaD1 Nicotiana alata) [reference compound]
Nail penetration, result in words [2]: able to penetrate nails faster and more effectively than the active ingredients of current topical onychomycosis therapies | Growth of E. coli in the presence of defensin (Escherichia coli): did not inhibit growth of E. coli at the concentrations tested | U937 cells permeabilized (PI-positive) [3]: 33%

Cc1cc(C2CCCCC2)n(O)c(=O)c1 [Ciclopirox]
Cumulative amount through nail as percent (of applied dose) ([2]; 3 day, 10 %): 0.03% | Cumulative amount through nail as percent (of applied dose) ([2]; 6 day, 10 %): 0.03% | Cumulative amount through nail as percent (of applied dose) ([2]; 9 day, 10 %): 0.04% | Cumulative amount through nail as percent (of applied dose) ([2]; 12 day, 10 % solution): 0.05% | Cumulative amount through nail as percent (of applied dose) ([2]; 15 day, 10 % solution): 0.06%

HXL004: Class I plant defensin from Nicotiana benthamiana, SEQ ID NO: 7 (RTCESQSHRFKGLCFSRSNCASVCHTEGFNGGHCRGFRRRCFCTRHC; HXL004 Nicotiana benthamiana)
Antifungal activity across the range of fungal pathogens, result in words [1]: intermediate activity across the range of pathogens | Nail penetration, result in words [2]: able to penetrate nails faster and more effectively than the active ingredients of current topical onychomycosis therapies | Growth of E. coli in the presence of defensin (Escherichia coli): inhibited the growth of E. coli in a concentration dependent manner | U937 cells permeabilized (PI-positive) [3]: 13%

LL37: human antimicrobial peptide LL37 used as a control (LLGDFFRKSKEKIGKEFKRIVQRIKDFLRNLVPRTES; Antibacterial peptide LL-37; UniProt P49913 134-170, looked up) [reference compound]
Growth of E. coli in the presence of defensin (Escherichia coli): inhibited the growth of E. coli in a concentration dependent manner

HXL005: Class I plant defensin from Taraxcum kok-saghyz, SEQ ID NO: 8 (KMCQTTSHAFSCVNDSGCSGSCEKQGFASGKCDGVRRRCTCYKKC; HXL005 Taraxcum kok-saghyz)
Antifungal activity across the range of fungal pathogens, result in words [1]: most effective plant defensins across the range of fungal pathogens | U937 cells permeabilized (PI-positive) [3]: ~25%

HXL002: Class I plant defensin from Triticum aestivum, SEQ ID NO: 5 (RDCLSQSHKFKGACLSSSNCAAVCRTENFPDGECHTHNFARKCFCKRAC; HXL002 Triticum aestivum)
Inhibition of M. fulvum, result in words (Microsporum fulvum): very poor inhibitors | Inhibition of C. albicans, result in words (C. albicans): very poor inhibitors | U937 cells permeabilized (PI-positive) [3]: less than 2%
